# Experimental data from US11000033B2, “Ketone or oxime compound, and herbicide” (NISSAN CHEMICAL CORPORATION, priority 2014, dated 2021).
# Experiments:
# Type in all cases: in vivo
# Monochoria vaginalis = test: Test Example 2: herbicidal activity, application during weed generation in submerged conditions (symbol C); details: Table 23; application herbicide amount 320 g/ha; grade 0-5 by criteria of Test Example 1
# Outline: (§1)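 Visual herbicidal ratings, taken three weeks after dosing, reflect post-emergence water-surface application to seedlings at one to two leaves. Conditions: co-sown weeds in alluvial soil flooded to 4 cm, greenhouse held at 25° C. to 30° C.; compound given as water-diluted emulsion at a fixed herbicide amount.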
# rice plant = test: Test Example 5: effect on crop by foliage application, plastic box (symbol b); details: 320 g/ha, 3 weeks after application
# Outline: (§2)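 Soil: sterilized diluvial. Container: plastic box, 21 × 13 cm, 7 cm deep. Sowing: spot-like, ~1.5 cm cover. Growth: greenhouse, 25° C. to 30° C.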
# Cyperus difformis = test: Test Example 3: herbicidal effect by foliage application, Wagner pot (symbol E); details: application herbicide amount 320 g/ha
# Outline: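 Herbicidal activity was rated three weeks after a foliar spray of diluted emulsion concentrate, applied at a predetermined dose to plants grown for 14 days from seed in waterlogged alluvial soil within a 25–30 °C greenhouse.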
# [1] = system: directly sowed rice plant; test: Test Example 3: effect on crop by foliage application, Wagner pot (symbol b); details: application herbicide amount 320 g/ha
# Outline: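 Wagner pot (1/10000 are), alluvial soil, submerged 0.1–0.5 cm; sown E. crus-galli var. crus-galli, L. chinensis, C. difformis, rice; greenhouse 25–30 °C.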
# [2] = system: Echinochloa oryzacola Vasing.; test: Test Example 2: herbicidal activity, application during weed generation in submerged conditions (symbol A); details: Table 23; application herbicide amount 320 g/ha; grade 0-5 by criteria of Test Example 1
# Outline: as §1
# Abutilon theophrasti = test: Test Example 4: herbicidal effect by soil treatment (symbol M); details: application herbicide amount 320 g/ha
# Outline: (§3)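 Seeds were sown in sterilized diluvial soil, covered with about 1.5 cm of soil, and the soil surface was sprayed with a water-diluted emulsion of the compound at a predetermined rate. Plants grew in a greenhouse at 25° C. to 30° C.; effects were scored visually 3 weeks after application.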
# Apera spica-venti = test: Test Example 5: herbicidal effect by foliage application, plastic box (symbol L); details: 320 g/ha, 3 weeks after application
# Outline: (§4)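 Visual herbicidal score, taken three weeks post-application, of seedlings sprayed on the foliage with water-diluted emulsion at a predetermined amount; plants were 14 days old, greenhouse-raised at 25° C. to 30° C.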
# Avena fatua = test: Test Example 5: herbicidal effect by foliage application, plastic box (symbol I); details: 320 g/ha, 3 weeks after application
# Outline: as §4
# [3] = system: Echinochloa oryzacola Vasing.; test: Test Example 1: herbicidal activity, application before weed generation in submerged conditions (symbol A); details: application herbicide amount 320 g/ha
# Outline: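 Compound emulsion was diluted to a set herbicide amount and applied to the water surface on the sowing day, into submerged (4 cm) alluvial-soil pots sown with mixed weed seeds and transplanted 2.5-leaf rice. Pots were held in a 25–30 °C greenhouse, and weeds were scored 0–5 by herbicidal ratio after 3 weeks.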
# [4] = system: Echinochloa crus-galli var. crus-galli; test: Test Example 4: herbicidal effect by soil treatment (symbol H); details: application herbicide amount 320 g/ha
# Outline: as §3
# Digitaria ciliaris = test: Test Example 5: herbicidal effect by foliage application, plastic box (symbol F); details: 320 g/ha, 3 weeks after application
# Outline: as §4
# rapeseed = test: Test Example 5: effect on crop by foliage application, plastic box (symbol g); details: 320 g/ha, 3 weeks after application
# Outline: as §2
# Stellaria media = test: Test Example 5: herbicidal effect by foliage application, plastic box (symbol P); details: 320 g/ha, 3 weeks after application
# Outline: as §4
SMILES,"Herbicidal effect grade, C: Monochoria vaginalis (Monochoria vaginalis)","b: directly sowed rice plant, effect on crop grade (rice plant)","herbicidal effect on E, grade 0-5 (Cyperus difformis)","effect on crop b (directly sowed rice plant), grade 0-5 [1]","Herbicidal effect grade, A: Echinochloa oryzacola Vasing. [2]","M: Abutilon theophrasti, herbicidal effect grade (Abutilon theophrasti)","L: Apera spica-venti, herbicidal effect grade (Apera spica-venti)","I: Avena fatua, herbicidal effect grade (Avena fatua)","Herbicidal effect grade, A: Echinochloa oryzacola Vasing. [3]","H: Echinochloa crus-galli var. crus-galli, herbicidal effect grade [4]","F: Digitaria ciliaris, herbicidal effect grade (Digitaria ciliaris)","g: rapeseed, effect on crop grade (rapeseed)",M (Abutilon theophrasti) herbicidal effect grade (Abutilon theophrasti),H (Echinochloa crus-galli var. crus-galli) herbicidal effect grade [4],"P: Stellaria media, herbicidal effect grade (Stellaria media)"
CCC(CCC1CC(O)=C(c2c(C)cc(C)cc2C)C1=O)=NOC (mixture of isomers) [4-001],0 (Herbicidal ratio of 5% or lower (almost no effect)),4 (Herbicidal ratio of 70% or higher and lower than 90%),0 (Herbicidal ratio of 5% or lower (almost no effect)),4 (Herbicidal ratio of 70% or higher and lower than 90%),0 (Herbicidal ratio of 5% or lower (almost no effect)),0 (Herbicidal ratio of 5% or lower (almost no effect)),2 (Herbicidal ratio of 20% or higher and lower than 40%),4 (Herbicidal ratio of 70% or higher and lower than 90%),0 (Herbicidal ratio of 5% or lower (almost no effect)),0 (Herbicidal ratio of 5% or lower (almost no effect)),3 (Herbicidal ratio of 40% or higher and lower than 70%),–,–,–,–
CON=C(C)CC1CC(OCC(=O)OC)=C(c2c(C)cc(C)cc2C)C1=O (stereo not drawn) [1-012],0 (Herbicidal ratio of 5% or lower (almost no effect)),0 (Herbicidal ratio of 5% or lower (almost no effect)),0 (Herbicidal ratio of 5% or lower (almost no effect)),0 (Herbicidal ratio of 5% or lower (almost no effect)),0 (Herbicidal ratio of 5% or lower (almost no effect)),–,0 (Herbicidal ratio of 5% or lower (almost no effect)),0 (Herbicidal ratio of 5% or lower (almost no effect)),0 (Herbicidal ratio of 5% or lower (almost no effect)),–,0 (Herbicidal ratio of 5% or lower (almost no effect)),0 (Herbicidal ratio of 5% or lower (almost no effect)),0 (Herbicidal ratio of 5% or lower (almost no effect)),0 (Herbicidal ratio of 5% or lower (almost no effect)),–
CON=C(C)CC1CC(OC(=O)OC)=C(c2c(C)cc(C)cc2C)C1=O (stereo not drawn) [1-014],3 (Herbicidal ratio of 40% or higher and lower than 70%),5 (Herbicidal ratio of 90% or more (almost completely withered)),5 (Herbicidal ratio of 90% or more (almost completely withered)),5 (Herbicidal ratio of 90% or more (almost completely withered)),5 (Herbicidal ratio of 90% or more (almost completely withered)),–,5 (Herbicidal ratio of 90% or more (almost completely withered)),5 (Herbicidal ratio of 90% or more (almost completely withered)),5 (Herbicidal ratio of 90% or more (almost completely withered)),–,5 (Herbicidal ratio of 90% or more (almost completely withered)),4 (Herbicidal ratio of 70% or higher and lower than 90%),4 (Herbicidal ratio of 70% or higher and lower than 90%),5 (Herbicidal ratio of 90% or more (almost completely withered)),–
CCC(=O)CCC1CC(O)=C(c2c(C)cc(C)cc2C)C1=O (stereo not drawn) [5-001],0 (Herbicidal ratio of 5% or lower (almost no effect)),4 (Herbicidal ratio of 70% or higher and lower than 90%),0 (Herbicidal ratio of 5% or lower (almost no effect)),5 (Herbicidal ratio of 90% or more (almost completely withered)),0 (Herbicidal ratio of 5% or lower (almost no effect)),0 (Herbicidal ratio of 5% or lower (almost no effect)),4 (Herbicidal ratio of 70% or higher and lower than 90%),4 (Herbicidal ratio of 70% or higher and lower than 90%),0 (Herbicidal ratio of 5% or lower (almost no effect)),1 (Herbicidal ratio of 5% or higher and lower than 20%),4 (Herbicidal ratio of 70% or higher and lower than 90%),0 (Herbicidal ratio of 5% or lower (almost no effect)),–,–,0 (Herbicidal ratio of 5% or lower (almost no effect))
CON=C(C)CC1CC(O)=C(c2c(C)cc(-c3ccc(Cl)cc3)cc2C)C1=O (mixture of isomers) [6-029],2 (Herbicidal ratio of 20% or higher and lower than 40%),5 (Herbicidal ratio of 90% or more (almost completely withered)),5 (Herbicidal ratio of 90% or more (almost completely withered)),5 (Herbicidal ratio of 90% or more (almost completely withered)),5 (Herbicidal ratio of 90% or more (almost completely withered)),0 (Herbicidal ratio of 5% or lower (almost no effect)),5 (Herbicidal ratio of 90% or more (almost completely withered)),5 (Herbicidal ratio of 90% or more (almost completely withered)),5 (Herbicidal ratio of 90% or more (almost completely withered)),5 (Herbicidal ratio of 90% or more (almost completely withered)),5 (Herbicidal ratio of 90% or more (almost completely withered)),4 (Herbicidal ratio of 70% or higher and lower than 90%),–,–,3 (Herbicidal ratio of 40% or higher and lower than 70%)
CCC(=O)CCC1CC(OC)=C(c2c(C)cc(C)cc2C)C1=O (stereo not drawn) [5-002],0 (Herbicidal ratio of 5% or lower (almost no effect)),0 (Herbicidal ratio of 5% or lower (almost no effect)),0 (Herbicidal ratio of 5% or lower (almost no effect)),0 (Herbicidal ratio of 5% or lower (almost no effect)),0 (Herbicidal ratio of 5% or lower (almost no effect)),0 (Herbicidal ratio of 5% or lower (almost no effect)),0 (Herbicidal ratio of 5% or lower (almost no effect)),0 (Herbicidal ratio of 5% or lower (almost no effect)),0 (Herbicidal ratio of 5% or lower (almost no effect)),0 (Herbicidal ratio of 5% or lower (almost no effect)),0 (Herbicidal ratio of 5% or lower (almost no effect)),–,–,–,–
CON=C(C)CC1CC(OCCSC)=C(c2c(C)cc(C)cc2C)C1=O (stereo not drawn) [1-011],0 (Herbicidal ratio of 5% or lower (almost no effect)),2 (Herbicidal ratio of 20% or higher and lower than 40%),0 (Herbicidal ratio of 5% or lower (almost no effect)),0 (Herbicidal ratio of 5% or lower (almost no effect)),0 (Herbicidal ratio of 5% or lower (almost no effect)),–,5 (Herbicidal ratio of 90% or more (almost completely withered)),0 (Herbicidal ratio of 5% or lower (almost no effect)),0 (Herbicidal ratio of 5% or lower (almost no effect)),–,3 (Herbicidal ratio of 40% or higher and lower than 70%),4 (Herbicidal ratio of 70% or higher and lower than 90%),0 (Herbicidal ratio of 5% or lower (almost no effect)),0 (Herbicidal ratio of 5% or lower (almost no effect)),–
